Values joined by “and” are separate entries in the source; they are usually repeats but may differ in a detail not shown here. Identical values can stand only once.
Columns and labels:
[1] = tested on: non-cancerous MCF10A breast cell line; experiment: MTT in vitro cytotoxicity assay, MCF10A; type: cell-based; conditions: 72 h drug exposure, n = 3, read-out: GI50 ± SEM, MCF10A
Description: (§1) The in vitro cytotoxicity assays were undertaken at Calvary Mater Hospital, Waratah, NSW, Australia, following a method previously published in the literature. A stock solution for each compound was prepared in DMSO (30 mM) and stored at −20 °C. The cell lines used in the study include HT29 colon, U87 glioblastoma, MCF-7 breast, A2780 ovarian, H460 lung, A431 skin, Du145 prostate, BE2-C neuroblastoma, SJ-G2 glioblastoma, MIA pancreas, and cisplatin-resistant ADDP ovarian (subclone of A2780) cancer cells, as well as the non-cancerous-derived MCF10A breast cell line. The cancer cell lines were cultured in a humidified atmosphere 5% CO2 at 37 °C and maintained in Dulbecco’s modified Eagle’s medium (Trace Biosciences, Sydney, Australia), supplemented with 10% foetal bovine serum, sodium bicarbonate (10 mM), penicillin (100 IU/mL), streptomycin (100 µg/mL), and glutamine (4 mM). The non-cancerous MCF10A cell line was maintained in DMEM:F12 (1:1) cell culture media, with 5% heat inactivated horse serum, supplemented with penicillin (50 IU/mL), streptomycin (50 µg/mL), glutamine (2 mM), HEPES (20 mM), epidermal growth factor (20 ng/mL), hydrocortisone (500 ng/mL), cholera toxin (100 ng/mL), and insulin (10 µg/mL). Cells were plated in duplicate in medium (100 µL) at a density of 2500–4000 cells per well in 96-well plates. On day 0, (24 h after plating) when the cells were in logarithmic growth, medium (100 μL) with or without the test agent was added to each well. The growth inhibitory effects were evaluated after 72 h drug exposure, using the MTT (3-(4,5-dimethylthiazol-2-yl)-2,5-diphenyltetrazolium bromide) assay, with the absorbance read at 540 nm. An eight-point dose–response curve was produced, which was used to determine the concentration at which growth was inhibited by 50% (GI50). This calculation was based on the difference between the optical density values on day 0 and those at the end of drug exposure. […] Experiments were conducted on three separate occasions and GI50 values were reported as the mean and standard error of the mean.

[2] = tested on: MCF-7 breast cancer cells; experiment: MTT in vitro cytotoxicity assay, MCF-7; type: cell-based
[3] = tested on: ADDP (subclone of A2780) versus A2780 ovarian cancer cell lines; experiment: Resistance factor, GI50 in ADDP/GI50 in A2780; type: cell-based
[4] = tested on: MCF-7 (breast cancer) cells; experiment: Cellular platinum uptake by ICP-MS, MCF-7; type: cell-based; conditions: at both 1.0 and 0.1 µM, 4 h
Description: Cellular uptake studies were carried out in MCF-7 (breast cancer) and MCF10A (healthy breast) cell lines. Reported in Table S2 are the numbers of cells per well that were seeded onto 12-well plates for each replicate and cell line. After incubating overnight at 37 °C, the cell culture medium was replaced with fresh media containing the test compounds at concentrations of 1.0 and 0.1 µM. After incubating for 4 h, the medium was removed, the cells were washed with PBS twice, and then incubated with trypsin solution until the cells dissociated from the plate. The harvested cells were then placed into an Eppendorf tube and PBS was added to a volume of 1 mL. Cell numbers were determined using trypan blue staining. Cell pellets were obtained after centrifugation and the cells were dispersed in 50 µL of MilliQ™ water and stored immediately at −20 °C until platinum analysis was conducted. These experiments were repeated in triplicate on three separate occasions.
Sixty-nine percent HNO3 (50 µL) was added to each sample and digested at 80 °C for 1.5 h, before being taken up to 1 mL with H2O. The platinum analysis was conducted using a PerkinElmer (Melbourne, Australia) NexION™ 300X inductively coupled plasma mass spectrometer (ICP-MS). A four-point calibration curve was produced by serial dilution of a certified platinum reference standard. The calibration was linear over the working range (R^2 > 0.9999) and the most abundant platinum isotope (m/z = 195) was monitored. The average values for three independent experiments were reported with standard deviations.

[5] = tested on: A2780 ovarian cancer cells; experiment: MTT in vitro cytotoxicity assay, A2780; type: cell-based; conditions: 72 h drug exposure, n = 3, read-out: GI50 ± SEM, A2780
Description: as §1

[6] = tested on: MIA pancreas cancer cells; experiment: MTT in vitro cytotoxicity assay, MIA; type: cell-based; conditions: 72 h drug exposure, n = 3, read-out: GI50 ± SEM, MIA
Description: as §1

[7] = tested on: Du145 prostate cancer cells; experiment: MTT in vitro cytotoxicity assay, Du145; type: cell-based
Description: as §1

[8] = Lipophilicity by RP-HPLC (logkw); type: physicochemical; conditions: capacity factor in 100% water
Description: HPLC experiments were carried out using an Agilent Technologies (Melbourne, Australia) 1260 Infinity instrument, equipped with a Phenomenex (Sydney, Australia) Onyx^TM Monolithic C18 reverse phase column (100 × 4.6 mm, 130 Å). The mobile phase was made up of 0.06% TFA in water (solvent A) and 0.06% TFA in an acetonitrile:water (9:1) mixture (solvent B). Samples were eluted over a gradient of 0–100% (% B) for 15 min, at a flow rate of 1 mL/min, with a sample injection volume of 10 µL. Eluting peaks were detected using a PDA at 254 nm.
For lipophilicity experiments, RP-HPLC was utilised to determine the logkw of each compound, similarly to what has been previously published for similar complexes. Samples were eluted at various isocratic percentages, ranging from 18–30% solvent B. To determine the dead volume of the column, potassium iodide was used as an external dead volume marker. The retention time of each sample in each isocratic run ( tr ) and the dead volume time ( t0 ) were both substituted in Equation (1) to calculate the capacity factor ( k ). (1) k=tr−t0/t0
Following this, logk was plotted against the percentage of ACN. For each complex, a minimum of four concentrations of ACN were used. This produced a linear graph with the equation in the form:(2) logk=Sφ+logkw where S is the slope, φ is the percentage of ACN, and logkw is the y-intercept, which represents the capacity factor of the compound in 100% water.
It is important to explore the lipophilicity of a drug, as it is widely believed that increased lipophilicity results in greater cellular accumulation. To understand the lipophilicity of 1–4, RP-HPLC was utilised to determine the logkw of each complex. To calculate this, each complex was eluted at different isocratic percentages, whereby the retention time was used in Equation (1) to calculate the capacity factor (k). The percentage of the organic solvent was then plotted against log k for each isocratic percentage, producing a linear equation that allowed for logkw to be deduced using Equation (2) (Figure S38). The logkw value represents the capacity factor of the compound in 100% water and can be used to compare a series of compounds. Since 1–4 comprise the same axially bound ligand, biotin, the lipophilicity was influenced by the groups on the PL. The logkw of each complex is presented in Table 1, with their corresponding PL. The increasing lipophilicity of the complexes followed the order: 1 < 4 < 2 < 3.

[9] = tested on: A431 skin cancer cells; experiment: MTT in vitro cytotoxicity assay, A431; type: cell-based; conditions: 72 h drug exposure, n = 3, read-out: GI50 ± SEM, A431
Description: as §1

[10] = tested on: cisplatin-resistant ADDP ovarian (subclone of A2780) cancer cells; experiment: MTT in vitro cytotoxicity assay, ADDP; type: cell-based; conditions: 72 h drug exposure, n = 3, read-out: GI50 ± SEM, ADDP
Description: as §1

[11] = tested on: U87 glioblastoma cells; experiment: MTT in vitro cytotoxicity assay, U87; type: cell-based; conditions: 72 h drug exposure, n = 3, read-out: GI50 ± SEM, U87
Description: as §1

[12] = tested on: H460 lung cancer cells; experiment: MTT in vitro cytotoxicity assay, H460; type: cell-based; conditions: 72 h drug exposure, n = 3, read-out: GI50 ± SEM, H460
Description: as §1

[13] = tested on: panel of cancer cell lines; experiment: MTT cytotoxicity averaged across the panel of cancer cell lines; type: cell-based
[14] = tested on: HT29 colon cancer cells; experiment: MTT in vitro cytotoxicity assay, HT29; type: cell-based
Description: as §1

[15] = tested on: BE2-C neuroblastoma cells; experiment: MTT in vitro cytotoxicity assay, BE2-C; type: cell-based; conditions: 72 h drug exposure, n = 3, read-out: GI50 ± SEM, BE2-C
Description: as §1

[16] = tested on: SJ-G2 glioblastoma cells; experiment: MTT in vitro cytotoxicity assay, SJ-G2; type: cell-based; conditions: 72 h drug exposure, n = 3, read-out: GI50 ± SEM, SJ-G2
Description: as §1

Cc1cc2ccc[n+]3c2c2c1ccc[n+]2[Pt-2]31([OH])([O]C(=O)CCCC[C@@H]2SC[C@@H]3NC(=O)N[C@@H]32)[NH2+][C@H]2CCCC[C@@H]2[NH2+]1.O=[N+]([O-])[O-].O=[N+]([O-])[O-] [Complex 4, [Pt(5-methyl-1,10-phenanthroline)(1S,2S-diaminocyclohexane)(biotin)(hydroxido)](NO3)2]
GI50 [1]: 0.031 ± 0.009 µM
GI50 ([2]; MTT, 72 h drug exposure, n = 3, read-out: GI50 ± SEM, MCF-7): 0.033 ± 0.004 µM
fold more active than its platinum(II) precursor in MCF-7 ([2]; ratio of GI50 values): 6 fold
Resistance factor (RF) [3]: 0.853 and 0.85
fold lower uptake in MCF-7 than its platinum(II) precursor [4]: ~ 2 fold
GI50 [5]: 0.034 ± 0.005 µM
GI50 [6]: 0.02 ± 0.004 µM
GI50 ([7]; MTT, 72 h drug exposure, n = 3, read-out: GI50 ± SEM, Du145): 0.009 ± 0.004 µM
number-fold potency against cisplatin, Du145 prostate ([7]; ratio of GI50 values, 72 h): 133 fold
logkw [8]: 0.74
GI50 [9]: 0.11 ± 0.02 µM
GI50 [10]: 0.029 ± 0.005 µM
GI50 [11]: 0.11 ± 0.03 µM
GI50 [12]: 0.032 ± 0.01 µM
enhanced activity compared to platinum(II) precursor across the cancer cell lines ([13]; across all cancer cell lines): ~ 2.3 fold
GI50 ([13]; calculated from the panel of cancer cell lines tested (Table S4)): 0.055 µM
GI50 ([14]; MTT, 72 h drug exposure, n = 3, read-out: GI50 ± SEM, HT29): 0.028 ± 0.009 µM
number-fold potency against cisplatin, HT29 colon ([14]; ratio of GI50 values, 72 h): 404 fold
GI50 [15]: 0.1 ± 0.02 µM
GI50 [16]: 0.1 ± 0.03 µM

Reference: paper PMC9853328, “Potent Platinum(IV) Prodrugs That Incorporate a Biotin Moiety to Selectively Target Cancer Cells” (Pharmaceutics, 2022)
